Reference: patent publication US6703362B1, “Random peptides that bind to gastro-intestinal tract (GIT) transport receptors and related methods” (Cytogen Corporation, priority 1997, dated 2004)
* marks the point of attachment. Dansyl = CN(C)c1cccc2c(S(=O)(=O)*)cccc12

Key:
[1] = tested on: P100 fractions harvested from Caco-2 cells; assay: Binding of dansylated peptides to P100 fractions and peptide/particle correlation; conditions: initial assay
Protocol: Caco-2 cell membrane (P100) and cytosolic (S100) fractions were prepared using a modification of the method described in Kinsella, B. T., O'Mahony, D. J. and G. A. FitzGerald, 1994, J. Biol. Chem. 269(47): 29914-29919. Confluent Caco-2 cell monolayers (grown in 75 cm^2 flasks for up to 1 week at 37° C. and 5% CO2) were washed twice in Dulbecco's PBS (DPBS) and the cells were harvested by centrifugation at 1000 rpm after treatment with 10 mM EDTA-DPBS. The cells were washed 3 times in DPBS and the final cell pellet was resuspended in 3 volumes of ice cold HED buffer (20 mM HEPES (pH 7.67), 1 mM EGTA, 0.5 mM dithiothreitol, 1 mM phenylmethylsulphonyl fluoride (PMSF)). The cells were allowed to swell for 5 min on ice prior to homogenization for 30 sec. The homogenates were centrifuged at 40,000 rpm for 45 min at 4° C. The supernatant (S100) was removed and the pellet (P100) was resuspended in HEDG buffer (20 mM HEPES (pH 7.67), 1 mM EGTA, 0.5 mM dithiothreitol, 100 mM NaCl, 10% glycerol, 1 mM PMSF). Protein concentrations were determined using the Bradford assay (Bradford, M. M., 1976, Anal. Biochem. 72: 248-254).
Binding of peptide and/or peptide-coated PLGA particles to membrane (P100) and cytosolic (S100) fractions was assessed by detection of the dansyl moiety incorporated in the peptide. Costar ninety six well ELISA plates were coated with S100 and P100 fractions (100 μg/ml in 0.05 M NaHCO3) overnight at 4° C. The plates were blocked with 0.5% bovine serum albumin in DPBS for 1 h at room temperature and washed 3 times in 1% BSA-DPBS. […] After washing 3 times in 1% BSA-DPBS 100 μl of TMB substrate (3,3′,5′,5-tetramethylbenzidine; Microwell Peroxidase Substrate System (Kirkegaard and Perry Laboratories 50-76-00)) was added and the optical density was measured at 650 nm at various time intervals.
Binding of dansylated peptides to P100 fractions was assessed to determine if peptide binding was predictive of peptide-coated particle binding.

[2] = tested on: P100 membrane fractions derived from Caco-2 cells; assay: Dansylated peptide ELISA: relative binding of PAX2 and HAX42 peptides to P100 (ratio to ZElan021); conditions: HAX42 peptides, ratio to ZElan021 = 1.00
Outline: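 P100 membrane fraction from Caco-2 cells (normally 100 μg/ml) coated in carbonate buffer pH9.6, blocked with 2% Marvel/PBS, then incubated with dansylated peptides. Detection via anti-mouse HRP conjugate and TMB, OD read at 650nm; binding expressed relative to ZElan021.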

fixed Caco-2 cells [3] = assay: Inhibition of GST-peptide fusion binding to fixed Caco-2 cells by synthetic peptides; conditions: peptide from 100 μg/ml serially diluted; GST fusion 10 μg
Description: Caco-2 cells were fixed, treated with phenylhydrazine and blocked as described above. […] GST-PAX2 binding was inhibited by ZElan032, ZElan033, and ZElan035.

[4] = Isoelectric points of synthetic peptides; format: physicochemical
hPEPT1 = target: T1, hPEPT1 (Homo sapiens, UniProt P46059); assay: Phage receptor ELISA on hPEPT1; format: binding; conditions: for OD, binding to hPEPT1: Table 4, phage panned on hPEPT1; for PEPT1/BSA: ratio of hPEPT1 to BSA binding
T1 construct: 391-571; made in house
T1 sequence (P46059 391-571): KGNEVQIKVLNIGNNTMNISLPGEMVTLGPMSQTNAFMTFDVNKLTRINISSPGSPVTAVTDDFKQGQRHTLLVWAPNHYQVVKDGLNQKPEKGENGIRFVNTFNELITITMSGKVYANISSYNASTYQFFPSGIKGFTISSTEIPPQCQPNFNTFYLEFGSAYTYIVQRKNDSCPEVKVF
Protocol: (§1) 96 well plates were coated overnight with GIT receptor, BSA and, optionally, IDE (insulin degrading enzyme, an irrelevant His-fusion protein)or hTF. The plates were 5 blocked for one hour with 0.5% BSA-PBS. After clarification, the amplified phage were diluted 1:100 in […] plus 0.05% Tween 20 in PBS and added to the plates. Following incubation of the plates on a rotator for 1 to 2 hours, the plates were washed 5 times with 1% BSA plus 0.05% Tween 20 in PBS. Dilute anti-M13-HRP conjugate (anti-M13 antibody linked to horse radish peroxidase (HRP)) was added to all the wells and the plate was incubated for one hour on a rotator. After the plates were washed 5 times, as described above, TMB substrate was added to the wells. The plates were read at 650 nm absorbance.

intestinal tissue = assay: Preselected phage libraries, rat closed loop: absorption/internalization to intestinal tissue (hybridization autoradiograph); format: in vivo; conditions: for binding to the intestine / found in the intestine samples: hPEPT1 pool of phages; for found in the intestinal samples fractions: D2H pool of phages
BSA = BSA (Bos taurus, UniProt P02769); assay: Phage ELISA on BSA (background control protein); format: binding
Chain of BSA (P02769 25-607): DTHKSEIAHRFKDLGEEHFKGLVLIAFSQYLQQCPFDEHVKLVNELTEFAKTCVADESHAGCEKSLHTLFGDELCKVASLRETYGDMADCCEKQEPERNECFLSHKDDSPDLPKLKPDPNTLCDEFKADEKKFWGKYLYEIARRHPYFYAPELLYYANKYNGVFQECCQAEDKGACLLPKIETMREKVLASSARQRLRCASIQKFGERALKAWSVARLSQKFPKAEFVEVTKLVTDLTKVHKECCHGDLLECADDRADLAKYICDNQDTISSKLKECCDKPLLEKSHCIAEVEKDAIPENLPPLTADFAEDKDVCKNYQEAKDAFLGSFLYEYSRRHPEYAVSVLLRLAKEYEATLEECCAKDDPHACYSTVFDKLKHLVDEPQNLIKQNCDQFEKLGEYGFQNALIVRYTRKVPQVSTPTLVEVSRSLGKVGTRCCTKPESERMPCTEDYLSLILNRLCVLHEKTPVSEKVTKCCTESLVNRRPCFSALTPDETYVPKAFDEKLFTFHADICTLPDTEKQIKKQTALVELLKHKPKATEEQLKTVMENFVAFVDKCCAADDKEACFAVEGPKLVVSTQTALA
Protocol: as §1

hSI = target: T2, hSI (Homo sapiens, UniProt P14410); assay: Phage receptor ELISA on hSI; format: binding; conditions: for OD, binding to hSI: Table 1, phage panned on hSI, absorbance 650 nm; for hSI/BSA: ratio of hSI to BSA binding
T2 construct: made in house
T2 sequence (P14410 272-667): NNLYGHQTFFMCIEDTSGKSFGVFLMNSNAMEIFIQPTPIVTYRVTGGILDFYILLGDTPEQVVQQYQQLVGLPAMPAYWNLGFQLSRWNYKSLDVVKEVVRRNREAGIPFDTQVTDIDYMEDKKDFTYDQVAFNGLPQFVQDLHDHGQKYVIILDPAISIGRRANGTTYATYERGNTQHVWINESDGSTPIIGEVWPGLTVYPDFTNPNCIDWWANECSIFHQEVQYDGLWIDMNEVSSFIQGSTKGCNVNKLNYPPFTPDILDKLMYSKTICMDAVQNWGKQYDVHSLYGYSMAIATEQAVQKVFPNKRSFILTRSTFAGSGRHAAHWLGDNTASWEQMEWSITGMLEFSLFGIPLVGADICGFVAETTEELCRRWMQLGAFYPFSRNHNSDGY
Protocol: as §1

D2H = target: T3, D2H (Homo sapiens, UniProt Q07837); assay: Phage receptor ELISA on D2H; format: binding; conditions: Table 3; for D2H/BSA: ratio of D2H to BSA binding; for OD, binding to D2H: two rounds on D2H, third pan on Caco-2 snapwells
T3 construct: 387-685; made in house
T3 sequence (Q07837 387-685): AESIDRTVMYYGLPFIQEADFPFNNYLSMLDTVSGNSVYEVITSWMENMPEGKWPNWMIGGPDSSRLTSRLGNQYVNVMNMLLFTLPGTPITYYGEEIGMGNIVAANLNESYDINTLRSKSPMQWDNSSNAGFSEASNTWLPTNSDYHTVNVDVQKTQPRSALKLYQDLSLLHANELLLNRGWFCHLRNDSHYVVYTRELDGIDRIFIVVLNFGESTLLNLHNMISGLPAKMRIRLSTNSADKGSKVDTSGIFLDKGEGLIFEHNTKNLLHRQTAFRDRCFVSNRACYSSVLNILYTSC
Protocol: as §1

[5] = tested on: P100 membrane fraction derived from Caco-2 cells; assay: GST-PAX2 peptides relative binding to P100 fractions (ratio to GST-HAX42); conditions: 20 μg/ml GST-peptide; binding to plastic subtracted; GST-HAX42 = 1.00
Protocol: The peptides and proteins were analyzed by a dansylated peptide ELISA method in which 96 well plates were coated overnight at 4° C. with 100 μl/well coating protein (normally 100 μg/ml P100 membrane fraction) in 0.05M carbonate buffer pH9.6. Nonspecific binding was blocked using 200 μl/well, 2% Marvel/PBS for 2 hours at 37° C. prior to incubation with dansylated peptides. The plates were washed three times with PBS/0.05% Tween 20 and after each subsequent incubation step. […] A buffer blank control was included to ensure that background binding to plastic was not due to the antibodies used in the assay system. […] The plates were then incubated with an anti-mouse X-HRP conjugated antibody (Southern Biotech 1060-05) at a 1:10,000 dilution in blocking solution, 100 μl/well for 1 hour at room temperature. Plates were developed using 75 μl/well Bionostics TMB substrate and incubated for approximately 10 minutes. The developing reaction was stopped using Bionostics Red Stop solution (25 μl/well), and the optical density of the plates was read at 650nm.
After subtraction of the GST-peptide binding to plastic from P100 binding values, the binding of GST-PAX2 peptides were represented as a ratio of GST-HAX42 binding to P100, which was given the arbitrary value of 1.00. The following ratios were determined from binding to P100 of GST-peptides at a peptide concentration of 20 μg/ml. Bold denotes positive binding to the P100 membrane fraction.

[6] = tested on: ZElan024 (P31), ZElan018 (PAX2), ZElan021 (HAX42); assay: Crossreactive binding of GST fusions to dansylated peptides
[7] = tested on: fixed Caco-2 or C2BBe1 cells; assay: ELISA of GST fusion proteins on fixed Caco-2 or C2BBe1 cells; format: binding
Protocol: Fixed Caco-2, C2BBe1, and A431 cell plates were prepared by growing cells on tissue culture treated microtiter plates. When cells were confluent, plates were fixed with 10% formaldehyde, washed twice with PBS and stored with 0.5%BSA-PBS at −20° C. […] The standard ELISA procedure was followed at this point.
The standard ELISA procedure was modified as follows. GST proteins were diluted to an appropriate concentration in PBS containing lkBSA and 0.05% Tween20 (1%BPT), titered and incubated one hour at room temperature. Following five washes an anti-GST monoclonal antibody was added (Sigma, St. Louis Clone GST-2 diluted 1:10,000 in 1%BPT) and incubated one hour. After five more washes goat anti-mouse IgG2b-HRP was added (Southern Biotechnology Associates Inc., Birmingham, Ala., diluted 1:4000 in 1%BPT) and incubated one hour. After five washes plates were developed with TMB peroxidase substrate (Kirkegard and Perry, Gaithersburg, Md.). All data is presented with background binding subtracted.

fixed Caco-2 cells [8] = assay: Effect of thrombin cleavage on binding of GST-peptide fusions to fixed Caco-2 cells; conditions: thrombin 18 h at room temperature
Protocol: Binding of intact and thrombin-cleaved GST-peptide fusions to fixed Caco-2 cells was compared.
Thirty micrograms of each GST-peptide was treated with bovine thrombin (1 μ/ml; 0.4 NIH units; Sigma CN.T9681) for 18 h at room temperature in 2OmM Tris-HCl pH8.0, 150 mM NaCl, 2.5 mM CaCl2. Controls were similarly treated without addition of thrombin. Ten micrograms of each GST-peptide fusion was removed for PAGE analysis, and 10 μg of fusions were added in duplicate to the fixed Caco-2 cells before 5-fold serial dilutions (1% BPT diluent). The fusions were allowed to bind for 1 h at room temperature. Following 6 washes with 1% BPT, binding was assayed by ELISA.

H-K(Dansyl)SDHALGTNLRSDNAKEPGDYNCCGNGNSTGRKVFNRRRPSAIPT-NH2 (cysteines drawn unpaired) [ZElan021]
binding of dansylated peptide to P100 compared to scrambled PAX2 control [1]: strong binding
Binding value at 20 μg/ml [2]: 1.00
Binding value at 25 μg/ml ([2]; first 25 μg/ml column): 1.00
Binding value at 50 μg/ml ([2]; first 50 μg/ml column): 1.00
Binding value at 25 μg/ml ([2]; second 25 μg/ml column): 1.00
Binding value at 50 μg/ml ([2]; second 50 μg/ml column): 1.00
Binding value at 25 μg/ml ([2]; third 25 μg/ml column): 1.00
inhibition of GST-HAX42 binding (fixed Caco-2 cells [3]): not inhibited

RGSTGTAGGERSGVLNLHTRDNASGSGFKPWYPSNRGHK [Peptide 5PAX5]
pI [4]: 11.49
OD, binding to hPEPT1 (hPEPT1): 0.15
PEPT1/BSA (hPEPT1): 4
binding to the intestine / found in the intestine samples (intestinal tissue): not found in the intestine samples
OD, binding to BSA (BSA; Table 4): 0.036

RVGQCTDSDVRRPWARSCAHQGCGAGTRNSHGCITRPLRQASAH [SNi10]
pI [4]: 10.45
OD, binding to BSA (BSA; Table 1, phage panned on hSI): 0.051
OD, binding to hSI (hSI): 0.57
hSI/BSA (hSI): 11

RYKHDIGCDAGVDKKSSSVRGGCGAHSSPPRAGRGPRGTMVSRL [DCX8]
pI [4]: 11.03
found in the intestinal samples fractions (intestinal tissue): to a much lesser extent
D2H/BSA (D2H): 3
OD, binding to D2H (D2H): 0.163
OD, binding to BSA (BSA; Table 3): 0.063

SARDSGPAEDGSRAVRLNGVENANTRKSSRSNPRGRRHP [Peptide P31]
pI [4]: 12.26
OD, binding to hPEPT1 (hPEPT1): 0.807
PEPT1/BSA (hPEPT1): 11
binding to the intestine / found in the intestine samples (intestinal tissue): preferential binding
OD, binding to BSA (BSA; Table 4): 0.075

SPCGGSWGRFMQGGLFGGRTDGCGAHRNRTSASLEPPSSDY [SNi34]
pI [4]: 8.25
OD, binding to BSA (BSA; Table 1, phage panned on hSI): 0.115
OD, binding to hSI (hSI): 0.761
hSI/BSA (hSI): 7

SQGSKQCMQYRTGRLTVGSEYGCGMNPARHATPAYPARLLPRYR [DCX11]
pI [4]: 10.44
found in the intestinal samples fractions (intestinal tissue): found in the intestinal samples fractions
D2H/BSA (D2H): 3
OD, binding to D2H (D2H): 0.222
OD, binding to BSA (BSA; Table 3): 0.071

gst-SDHALGTNLRSDNAKEPGDYNCCGNGNSTGRKVFNRRRPSAIPT [GST-HAX42]
Value (binding to P100 as ratio of GST-HAX42 binding) [5]: 1.00
crossreactivity to ZElan018 (PAX2) and ZElan021 (HAX42) ([6]; 5 μg/ml concentration used in competition assays): crossreactivity
binding to fixed Caco-2 or C2BBe1 cells relative to GST control [7]: weak to moderate binding

gst-STPPSREAYSRPYSVDSDSDTNAKHSSHNRRLRTRSRPN [GST-PAX2]
Value (binding to P100 as ratio of GST-HAX42 binding) [5]: 1.79
crossreactive binding to ZElan024 (P31) and ZElan018 (PAX2) ([6]; 0.5 μg/ml concentration used in competition assays): no crossreactive binding
binding to fixed Caco-2 or C2BBe1 cells relative to GST control [7]: bound fixed Caco-2 or C2BBe1 cells

gst-TNAKHSSHNRRLRTRSRPN [GST-PAX2.106]
effect of thrombin cleavage on detection of binding (fixed Caco-2 cells [8]): significantly reduced detection of binding
Value (binding to P100 as ratio of GST-HAX42 binding) [5]: 2.71
binding of truncation to fixed Caco-2 cells relative to full-length fusion [7]: bound similarly to full-length PAX2
